Active and inactive are the calls of the source.
Assays:
Mus musculus [1] = assay: The percent of animals in the scopolamine-drug group with latencies greater than the cutoff time at subcutaneous dose of 0.1 mg/kg; assay type: functional
Mus musculus [2] = assay: The percent of animals in the scopolamine-drug group with latencies greater than the cutoff time at subcutaneous dose of 0.3 mg/kg; assay type: functional
Mus musculus [3] = assay: Compound evaluated in vivo for reversing the Scopolamine dementia dark avoidance (SDDA) in mice expressed number of active dosages versus the total number of dosages evaluated; 3/3 and active; assay type: functional, organism-based
[4] = biological target: T1, Acetylcholinesterase (Rattus norvegicus) (UniProt P37136); assay: Tested for percent ex vivo inhibition of rat striatal acetylcholinesterase at peroral dose of 20 mg/kg at 4 hr; assay type: organism-based; parameters: dose 20 mg/kg
T1 sequence (whole entry): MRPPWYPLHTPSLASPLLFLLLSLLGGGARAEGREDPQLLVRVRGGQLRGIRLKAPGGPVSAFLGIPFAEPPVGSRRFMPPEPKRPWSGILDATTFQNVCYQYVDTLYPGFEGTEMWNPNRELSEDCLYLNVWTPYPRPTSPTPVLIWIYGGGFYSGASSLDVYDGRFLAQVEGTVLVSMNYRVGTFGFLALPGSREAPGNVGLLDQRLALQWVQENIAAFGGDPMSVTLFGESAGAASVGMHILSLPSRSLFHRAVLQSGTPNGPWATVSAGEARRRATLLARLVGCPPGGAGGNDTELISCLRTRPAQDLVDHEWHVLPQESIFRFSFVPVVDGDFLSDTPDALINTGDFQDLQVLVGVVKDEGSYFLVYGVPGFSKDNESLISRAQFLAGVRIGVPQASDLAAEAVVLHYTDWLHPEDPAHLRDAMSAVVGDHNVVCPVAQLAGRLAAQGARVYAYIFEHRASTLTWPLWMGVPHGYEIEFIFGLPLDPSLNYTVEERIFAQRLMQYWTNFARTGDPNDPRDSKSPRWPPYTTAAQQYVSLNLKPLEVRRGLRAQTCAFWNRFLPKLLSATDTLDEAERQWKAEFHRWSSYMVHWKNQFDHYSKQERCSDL

Cholinesterase [5] = biological target: T2, Cholinesterase (Homo sapiens, UniProt P06276); assay: In vitro inhibition of human serum Butyrylcholinesterase using butyrylthiocholine as substrate; 0.15-0.22
[6] = biological target: T1, Acetylcholinesterase (Rattus norvegicus); assay: Tested for percent ex vivo inhibition of rat striatal acetylcholinesterase at peroral dose of 10 mg/kg at 24 hr; assay type: organism-based; parameters: dose 10 mg/kg
[7] = biological target: T1, Acetylcholinesterase (Rattus norvegicus); assay: Compound was evaluated ex vivo for the inhibition of acetylcholinesterase (AChEI) one hour after oral administration
[8] = biological target: T1, Acetylcholinesterase (Rattus norvegicus); assay: Tested for percent ex vivo inhibition of rat striatal acetylcholinesterase at peroral dose of 20 mg/kg at 6 hr; assay type: organism-based; parameters: dose 20 mg/kg
[9] = biological target: T1, Acetylcholinesterase (Rattus norvegicus); assay: Tested for percent ex vivo inhibition of rat striatal acetylcholinesterase at peroral dose of 10 mg/kg at 1 hr; assay type: organism-based; parameters: dose 10 mg/kg
Acetylcholinesterase [10] = biological target: T3, Acetylcholinesterase (Rattus norvegicus, UniProt P37136); assay: Compound was evaluated in vitro in rats for the inhibition of brain (striatal) acetylcholinesterase (AChEI) using acetylthiocholine as substrate; 0.084-0.19
T3 sequence (P37136 whole entry): T1 sequence (whole entry)

[11] = biological target: T1, Acetylcholinesterase (Rattus norvegicus); assay: Tested for percent ex vivo inhibition of rat striatal acetylcholinesterase at peroral dose of 20 mg/kg at 24 hr; assay type: organism-based; parameters: dose 20 mg/kg
[12] = biological target: T1, Acetylcholinesterase (Rattus norvegicus); assay: Tested for percent ex vivo inhibition of rat striatal acetylcholinesterase at peroral dose of 20 mg/kg at 1 hr; assay type: organism-based; parameters: dose 20 mg/kg
[13] = biological target: T1, Acetylcholinesterase (Rattus norvegicus); assay: Tested for percent ex vivo inhibition of rat striatal acetylcholinesterase at peroral dose of 10 mg/kg at 4 hr; assay type: organism-based; parameters: dose 10 mg/kg
Mus musculus [14] = assay: The percent of animals in the scopolamine-drug group with latencies greater than the cutoff time at subcutaneous dose of 0.03 mg/kg; assay type: functional
[15] = biological target: T1, Acetylcholinesterase (Rattus norvegicus); assay: Dose required to exhibit robust maximal effect for acetylcholinesterase (AChE) inhibition following intraperitoneal administration
[16] = biological target: T1, Acetylcholinesterase (Rattus norvegicus); assay: Tested for percent ex vivo inhibition of rat striatal acetylcholinesterase at peroral dose of 10 mg/kg at 6 hr; assay type: organism-based; parameters: dose 10 mg/kg
[17] = biological target: T4, Muscarinic acetylcholine receptor M4 (Homo sapiens) (UniProt P08173); assay: In vitro inhibition of muscarinic receptor stimulation; NI=No inhibition
T4 sequence (whole entry): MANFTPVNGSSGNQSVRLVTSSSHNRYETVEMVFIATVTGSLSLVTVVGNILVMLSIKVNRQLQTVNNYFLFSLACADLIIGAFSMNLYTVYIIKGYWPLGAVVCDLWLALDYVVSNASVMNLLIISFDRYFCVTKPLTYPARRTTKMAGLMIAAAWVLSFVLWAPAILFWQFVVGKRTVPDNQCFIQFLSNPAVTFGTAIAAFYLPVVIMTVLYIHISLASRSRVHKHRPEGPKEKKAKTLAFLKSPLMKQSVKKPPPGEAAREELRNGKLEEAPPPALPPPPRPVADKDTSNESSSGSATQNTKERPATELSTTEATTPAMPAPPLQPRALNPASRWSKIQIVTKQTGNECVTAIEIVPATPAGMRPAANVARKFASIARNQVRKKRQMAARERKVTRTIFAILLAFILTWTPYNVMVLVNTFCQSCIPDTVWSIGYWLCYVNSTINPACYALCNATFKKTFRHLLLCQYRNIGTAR

[18] = biological target: T5, Acetylcholine receptor subunit delta (Torpedo californica) (UniProt P02718); assay: In vitro inhibition of Nicotinic acetylcholine receptor stimulation; NI=No inhibition
T5 sequence (whole entry): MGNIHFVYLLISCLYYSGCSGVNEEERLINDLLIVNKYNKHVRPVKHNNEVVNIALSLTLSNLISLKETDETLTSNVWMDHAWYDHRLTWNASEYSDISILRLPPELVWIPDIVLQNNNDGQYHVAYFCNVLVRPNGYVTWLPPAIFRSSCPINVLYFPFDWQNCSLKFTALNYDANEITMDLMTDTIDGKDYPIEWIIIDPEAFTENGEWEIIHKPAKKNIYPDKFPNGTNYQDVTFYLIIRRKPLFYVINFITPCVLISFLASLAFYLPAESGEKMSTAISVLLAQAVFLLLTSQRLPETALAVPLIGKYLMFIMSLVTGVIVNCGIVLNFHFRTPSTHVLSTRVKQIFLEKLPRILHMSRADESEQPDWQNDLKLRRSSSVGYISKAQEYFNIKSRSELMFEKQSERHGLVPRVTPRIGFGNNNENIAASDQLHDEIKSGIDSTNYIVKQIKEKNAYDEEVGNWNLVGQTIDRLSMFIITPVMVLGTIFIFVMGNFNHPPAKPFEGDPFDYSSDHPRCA

Cholinesterase [19] = biological target: T2, Cholinesterase; assay: In vitro inhibition of human serum Butyrylcholinesterase using butyrylthiocholine as substrate; 0.00029-0.001
Acetylcholinesterase [20] = biological target: T3, Acetylcholinesterase; assay: Compound was evaluated in vitro in rats for the inhibition of brain (striatal) acetylcholinesterase (AChEI) using acetylthiocholine as substrate; 0.0026-0.031
Mus musculus [21] = assay: The percent of animals in the scopolamine-drug group with latencies greater than the cutoff time at subcutaneous dose of 0.01 mg/kg; assay type: functional
Mus musculus [22] = assay: The percent of animals in the scopolamine-drug group with latencies greater than the cutoff time at subcutaneous dose of 0.001 mg/kg; assay type: functional
Mus musculus [23] = assay: Compound evaluated in vivo for reversing the Scopolamine dementia dark avoidance (SDDA) in mice expressed number of active dosages versus the total number of dosages evaluated; 5/7 and active; assay type: functional, organism-based
Mus musculus [24] = assay: The percent of animals in the scopolamine-drug group with latencies greater than the cutoff time at subcutaneous dose of 1.0 mg/kg; assay type: functional
Mus musculus [25] = assay: The percent of animals in the scopolamine-drug group with latencies greater than the cutoff time at subcutaneous dose of 0.003 mg/kg; assay type: functional
Acetylcholinesterase [26] = biological target: T3, Acetylcholinesterase; assay: Compound was evaluated in vitro in rats for the inhibition of brain (striatal) acetylcholinesterase (AChEI) using acetylthiocholine as substrate; 21-88
Acetylcholinesterase [27] = biological target: T3, Acetylcholinesterase; assay: Compound was evaluated in vitro in rats for the inhibition of brain (striatal) acetylcholinesterase (AChEI) using acetylthiocholine as substrate; 0.014-0.14
Mus musculus [28] = assay: Compound evaluated in vivo for reversing the Scopolamine dementia dark avoidance (SDDA) in mice expressed number of active dosages versus the total number of dosages evaluated; 4/9 and active; assay type: functional, organism-based
Mus musculus [29] = assay: The percent of animals in the scopolamine-drug group with latencies greater than the cutoff time at subcutaneous dose of 0.04 mg/kg;; assay type: functional
Mus musculus [30] = assay: The percent of animals in the scopolamine-drug group with latencies greater than the cutoff time at subcutaneous dose of 5 mg/kg; assay type: functional
Cholinesterase [31] = biological target: T2, Cholinesterase; assay: In vitro inhibition of human serum Butyrylcholinesterase using butyrylthiocholine as substrate; 0.01-0.069
Mus musculus [32] = assay: The percent of animals in the scopolamine-drug group with latencies greater than the cutoff time at subcutaneous dose of 2.5 mg/kg; assay type: functional
Mus musculus [33] = assay: The percent of animals in the scopolamine-drug group with latencies greater than the cutoff time at subcutaneous dose of 1.25 mg/kg; assay type: functional
Mus musculus [34] = assay: The percent of animals in the scopolamine-drug group with latencies greater than the cutoff time at subcutaneous dose of 3.0 mg/kg; assay type: functional
Cholinesterase [35] = biological target: T2, Cholinesterase; assay: In vitro inhibition of human serum Butyrylcholinesterase using butyrylthiocholine as substrate; 0.69-1.2
Acetylcholinesterase [36] = biological target: T3, Acetylcholinesterase; assay: Compound was evaluated in vitro in rats for the inhibition of brain (striatal) acetylcholinesterase (AChEI) using acetylthiocholine as substrate; 3.3-4.8
Mus musculus [37] = assay: Compound was evaluated in vivo for the significant activity at all doses in reversing the Scopolamine dementia dark avoidance (SDDA) in mice; 2/3; assay type: functional
Mus musculus [38] = assay: Compound was evaluated in vivo for the significant activity at all doses in reversing the Scopolamine dementia dark avoidance (SDDA) in mice; 1/6; assay type: functional
Acetylcholinesterase [39] = biological target: T3, Acetylcholinesterase; assay: Compound was evaluated in vitro in rats for the inhibition of brain (striatal) acetylcholinesterase (AChEI) using acetylthiocholine as substrate; 0.024-0.14
Cholinesterase [40] = biological target: T2, Cholinesterase; assay: In vitro inhibition of human serum Butyrylcholinesterase using butyrylthiocholine as substrate; 0.023-0.041
Mus musculus [41] = assay: The percent of animals in the scopolamine-drug group with latencies greater than the cutoff time at subcutaneous dose of 0.63 mg/kg; assay type: functional

T2 sequence (P06276 whole entry): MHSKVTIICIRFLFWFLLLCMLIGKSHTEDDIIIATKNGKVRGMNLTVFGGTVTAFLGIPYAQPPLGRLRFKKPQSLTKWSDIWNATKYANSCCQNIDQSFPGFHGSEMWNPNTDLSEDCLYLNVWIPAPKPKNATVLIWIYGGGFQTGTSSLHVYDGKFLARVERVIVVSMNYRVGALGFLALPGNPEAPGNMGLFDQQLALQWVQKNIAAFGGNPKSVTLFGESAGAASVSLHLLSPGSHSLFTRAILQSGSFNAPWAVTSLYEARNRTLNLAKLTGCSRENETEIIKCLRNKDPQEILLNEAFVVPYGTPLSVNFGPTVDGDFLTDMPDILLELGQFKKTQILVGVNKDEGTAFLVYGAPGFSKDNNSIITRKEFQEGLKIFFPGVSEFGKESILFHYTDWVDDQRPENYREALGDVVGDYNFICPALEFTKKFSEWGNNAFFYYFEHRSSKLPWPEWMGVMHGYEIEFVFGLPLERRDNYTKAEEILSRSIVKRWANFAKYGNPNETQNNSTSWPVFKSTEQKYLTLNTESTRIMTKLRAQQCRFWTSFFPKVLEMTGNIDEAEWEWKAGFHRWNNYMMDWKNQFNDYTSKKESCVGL

## CNC(=O)Oc1ccc2c(c1)c(C)cn2Nc1ccncc1F
Mus musculus [1]
  Response: 21%
Mus musculus [2]
  Response: 28%
Mus musculus [3]
  Activity: Active
[4]
  inhibition: 84%
Cholinesterase [5]
  IC50: 190 nM
[6]
  inhibition: 0%
[7]
  ED50: 8.3 mg/kg
[8]
  inhibition: 82%
[9]
  inhibition: 67%
Acetylcholinesterase [10]
  IC50: 130 nM
[11]
  inhibition: 20%
[12]
  inhibition: 82%
[13]
  inhibition: 56%
Mus musculus [14]
  Response: 40%
[15]
  DOSE: 0.625 mg/kg
[16]
  inhibition: 3%

## CCCN(c1ccncc1)n1ccc2ccccc21
[17]
  Activity: inactive
[18]
  Activity: inactive

## CCCCCCCNC(=O)Oc1ccc2c(c1)[C@]1(C)CCN(C)[C@@H]1N2C [EPTASTIGMINE]
Cholinesterase [19]
  IC50: 0.69 nM
Mus musculus [1]
  Response: 33%
Acetylcholinesterase [20]
  IC50: 9 nM
Mus musculus [21]
  Response: 45%
Mus musculus [22]
  Response: 40%
[7]
  ED50: 10.1 mg/kg
Mus musculus [23]
  Activity: Active
Mus musculus [24]
  Response: 20%
Mus musculus [25]
  Response: 53%

## CCCCCCCNC(=O)Oc1ccc2c(c1)c(C)cn2N(CCC)c1ccncc1F
Acetylcholinesterase [26]
  IC50: 43000 nM

## CCCN(c1ccncc1F)n1cc(C)c2cc(OC(=O)NCc3ccccc3)ccc21
Acetylcholinesterase [27]
  IC50: 43 nM
Mus musculus [28]
  Activity: Active
Mus musculus [29]
  Response: 20%
Mus musculus [30]
  Response: 20%
[4]
  inhibition: 12%
Cholinesterase [31]
  IC50: 27 nM
[8]
  inhibition: 6%
[11]
  inhibition: 2%
Mus musculus [32]
  Response: 20%
Mus musculus [33]
  Response: 20%
[12]
  inhibition: 15%

## CCCCNC(=O)Oc1ccc2c(c1)c(C)cn2N(CCC)c1ccncc1F
Mus musculus [34]
  Response: 33%
[4]
  inhibition: 26%
Cholinesterase [35]
  IC50: 920 nM
Mus musculus [24]
  Response: 33%
[11]
  inhibition: 11%
Acetylcholinesterase [36]
  IC50: 4000 nM
Mus musculus [37]
  Activity: 2

## CCCN(c1ccncc1F)n1cc(C)c2cc(OC(=O)NC)ccc21
Mus musculus [38]
  Activity: 1
Acetylcholinesterase [39]
  IC50: 58 nM
[4]
  inhibition: 41%
Cholinesterase [40]
  IC50: 31 nM
[11]
  inhibition: 9%
Mus musculus [41]
  Response: 27%
[12]
  inhibition: 50%

Source: ChEMBL document CHEMBL1130558, “Synthesis and preliminary structure-activity relationships of 1-[(3-fluoro-4-pyridinyl)amino]-3-methyl-1H-indol-5-yl methyl carbamate (P10358), a novel acetylcholinesterase inhibitor” (Bioorg Med Chem Lett, 1997)
